What all share (assay): Growth-inhibition test on mosquito larvae
The test system of one test is Anopheles albimanus. The class given is in vivo. The settings on record: late third- and early fourth-stage larvae, 7 days, corrected by Abbott's formula. The procedure:
(§1) Twenty-five late third-and early fourth-stage mosquito larve were placed in a 500-ml glass jar (9X8.5 cm diam) containing 100 ml of well water, 0.05g ground hog supplement for larval food, and a known amount of the test compound in not more than 1.0ml acetone. The jars were covered with cloth netting and held in constant temperature incubators at 26.7°-28.9° C. and 65-75% relative humidity; a low level of illumination (ca. 0.5 foot candles inside the incubators) was maintained during nonworking hours. After seven days, the jars were examined for the number of dead pupae, the number of adults that were dead or unable to complete eclosion and the number of exuvia. […] Tests were replicated for at least one concentration and a control was set with each test series. Several concentrations of each compound were tested so that a dose-response relationship could be established.
(§2) The effectiveness of the compound in inhibiting growth was determined by adding the numbers of dead larvae and pupae and the numbers of adults that were dead, unable to complete eclosion, and malformed. This sum was corrected by Abbott's formula (to adjust for the number of larvae or pupae which would die naturally). The results are expressed as LC 50 or LC 90, i.e., the concentration of growth inhibitor in ppm that would prevent and/or retard the growth in 50% or 90%, respectively, of the treated larvae.

A further test deals with Aedes taeniorhynchos. The class given is in vivo. The settings on record: late third- and early fourth-stage larvae, 7 days, corrected by Abbott's formula. The procedure: as §1, §2
The test system of test [1] is Anopheles quadrimaculatus. The format is in vivo, Anopheles quadrimaculatus (malaria mosquito). The settings on record: late third- and early fourth-stage larvae, 7 days, corrected by Abbott's formula; for LC50: 168 h, read-out: LC-50 (concentration that would prevent and/or retard the growth in 50% of the treated larvae). The procedure:
as §1, §2

Another test deals with Aedes aegypti. The class given is in vivo, Aedes aegypti (yellow fever mosquito). The note with it: late third- and early fourth-stage larvae, 7 days, corrected by Abbott's formula. The procedure:
as §1, §2

Values after ≈ are worked out from the molar mass of the structure shown. Where only a bound is given, the exact number is not on record here.

Consider `COc1c(Cc2ccccc2)cc(C(C)(C)C)cc1C(C)(C)C` [A, 2,4-Bis(1,1-dimethylethyl)-6-(phenylmethyl)methoxybenzene], for which, in the test on Anopheles albimanus, the LC-50 is given as 0.014 ppm and the LC-90 was 0.025 ppm. In the test on Aedes taeniorhynchos, this molecule returned an LC-50 of 0.026 ppm and an LC-90 of 0.164 ppm. Further, in test [1], the LC50 stood at 0.065 µg/mL (≈ 0.209 µM) and the “LC-90 (concentration that would prevent and/or retard the growth in 90% of the treated larvae)” value worked out at 0.092 ppm.

In the case of `CC(C)(C)c1cc(Cc2ccccc2)c(O)c(C(C)(C)C)c1` [A-I], in test [1], the LC50 was found to be 0.2 µg/mL (≈ 0.675 µM) and the “LC-90 (concentration that would prevent and/or retard the growth in 90% of the treated larvae)” value turned out to be 1.37 ppm.

Take `COc1ccc(Cc2cc(C(C)(C)C)cc(C(C)(C)C)c2OC)cc1` [Compound B, 2,4-Bis (1,1-dimethylethyl)-6-[(4-methoxyphenyl)methyl]-methoxybenzene]: the results for the LC-50 in the test on Aedes aegypti, with Anopheles albimanus and in the test with Aedes taeniorhynchos were 0.005 ppm, “.005 ppm” and 0.009 ppm, respectively. Besides, the values for the LC-90 with Aedes aegypti, in the test with Anopheles albimanus and in the test with Aedes taeniorhynchos were 0.099 ppm, 0.009 ppm and 0.023 ppm, respectively. In test [1], the “LC-90 (concentration that would prevent and/or retard the growth in 90% of the treated larvae)” value came out at 0.032 ppm.

As to `CC(C)(C)c1cc(CC=Cc2ccccc2)c(O)c(C(C)(C)C)c1` [C-I], in test [1], the LC50 was found to be 0.152 µg/mL (≈ 0.471 µM) and the “LC-90 (concentration that would prevent and/or retard the growth in 90% of the treated larvae)” value stood at 0.399 ppm.

Consider `COc1c(CC=Cc2ccccc2)cc(C(C)(C)C)cc1C(C)(C)C` [C, 2,4-Bis(1,1-dimethylethyl)-6-(3-phenyl-2-propenyl)methoxybenzene], for which, in test [1], the LC50 amounted to 0.026 µg/mL (≈ 0.0773 µM) and the “LC-90 (concentration that would prevent and/or retard the growth in 90% of the treated larvae)” value amounted to 0.089 ppm.

With `COc1ccc(C(C)c2cc(C(C)(C)C)cc(C(C)(C)C)c2OC)cc1` (stereo not drawn) [B-IV], in test [1], the LC50 stood at 0.242 µg/mL (≈ 0.683 µM) and the “LC-90 (concentration that would prevent and/or retard the growth in 90% of the treated larvae)” value worked out at 0.556 ppm.

In the case of `COc1ccc(Cc2cc(C(C)(C)C)cc(C(C)(C)C)c2O)cc1` [Compound B-I, 2,4-bis(1,1-dimethylethyl)-6-[(4-methoxyphenyl)methyl]phenol], in test [1], the LC50 worked out at 0.12 µg/mL (≈ 0.368 µM) and the “LC-90 (concentration that would prevent and/or retard the growth in 90% of the treated larvae)” value came to 0.225 ppm.

`CCOc1c(C(C)c2ccc(OC)cc2)cc(C(C)(C)C)cc1C(C)(C)C` (stereo not drawn) [B-V]: the “LC-90 (concentration that would prevent and/or retard the growth in 90% of the treated larvae)” value in test [1] is on record as more than 1.0 ppm.

In the case of `CCOc1c(Cc2ccc(OC)cc2)cc(C(C)(C)C)cc1C(C)(C)C` [B-II], in test [1], the LC50 was 0.074 µg/mL (≈ 0.209 µM) and the “LC-90 (concentration that would prevent and/or retard the growth in 90% of the treated larvae)” value turned out to be 0.285 ppm.

With `CCOc1c(CC=Cc2ccccc2)cc(C(C)(C)C)cc1C(C)(C)C` [C-II], in test [1], the LC50 is 0.189 µg/mL (≈ 0.539 µM) and the “LC-90 (concentration that would prevent and/or retard the growth in 90% of the treated larvae)” value came to 1.042 ppm.

Take `COc1c(C(C)c2ccccc2)cc(C(C)(C)C)cc1C(C)(C)C` (stereo not drawn) [A-III]: in test [1], the “LC-90 (concentration that would prevent and/or retard the growth in 90% of the treated larvae)” value is reported as more than 1.0 ppm.

As to `CCOc1c(C(C)c2ccccc2)cc(C(C)(C)C)cc1C(C)(C)C` (stereo not drawn) [A-II], the “LC-90 (concentration that would prevent and/or retard the growth in 90% of the treated larvae)” value in test [1] is listed as more than 1.0 ppm.

For the origin of these results see patent US4391828A, “Dibutylorthobenzylmethoxybenzenes and dibutylorthocinnamylmethoxybenzenes as mosquito larvae growth inhibitors” (The United States of America as represented by the …, priority 1982, dated 1983).
